Assay results as given in article PMC4879371, “Antitrypanosomal Activities and Mechanisms of Action of Novel Tetracyclic Iridoids from Morinda lucida Benth” (Antimicrobial Agents and Chemotherapy, 2016).

What follows are molecules tested on GUTat 3.1 strain of the bloodstream form of T. brucei brucei (assay: alamarBlue in vitro viability test for trypanosome parasites). Conditions: Trypanosoma brucei, 48 h of incubation, read-out: IC50, antitrypanosomal activity.
Assay type: cell-based
Procedure: The GUTat 3.1 strain of the bloodstream form of T. brucei brucei parasites was used in this study. Parasites were cultured in vitro according to the conditions established previously ([36]). Parasites were used when they reached a confluent concentration of 1 × 10^6 parasites/ml. Estimation of parasitemia was done with the Neubauer counting chamber. Parasites were diluted to a concentration of 3 × 10^5 parasites/ml with HM1-9 medium and were used for the various experiments.
The alamarBlue assay (Life Technologies, USA) was carried out on treated or untreated trypanosome parasites to ascertain their viability. The assay was performed in a 96-well plate following the manufacturer's instructions with modification. Briefly, 1.5 × 10^4 parasites were seeded with varied concentrations of plant material (extracts, fractions, or compounds) ranging from 0.78 μg/ml to […]. Final concentrations of EtOH and dimethyl sulfoxide (DMSO) were kept at <1% and 0.1%, respectively. After incubation of parasites with or without plant extracts or compounds for 24 h at 37°C in 5% CO2, 10% alamarBlue dye was added, and the parasites were incubated another 24 h in darkness. After a total of 48 h, the plate was read for absorbance at 540 nm using the Tecan Sunrise Wako spectrophotometer. The trend curve was drawn to obtain a 50% inhibitory concentration (IC50) of each plant material (extracts, fractions, and compounds).

SMILES | IC50 [µM]
COc1c2cc(C=O)ccc2c(OC)c2c(O)cccc12 [oruwalol] | 518
CC1(C)CC[C@]2(C(=O)O)CC[C@]3(C)C(=CC[C@@H]4[C@@]5(C)CC[C@H](O)C(C)(C)[C@@H]5CC[C@]43C)[C@@H]2C1 [oleanolic acid] | 13.7
C[C@H]1[C@H](C)CC[C@]2(C(=O)O)CC[C@]3(C)C(=CC[C@@H]4[C@@]5(C)CC[C@H](O)C(C)(C)[C@@H]5CC[C@]43C)[C@H]12 [ursolic acid] | 15.4
